# Measurements from publication PMC3435281 (PLoS ONE, 2012).
# Experiments:
# [1] = biological target: AHR^b isoform (C57BL/6J hepatic cytosol) (Mus musculus, UniProt P30561); conditions: read-out: IC50, competitive binding; C57BL/6J cytosol, 1 nM radioligand 125IBr2N3DpD
# [2] = test system: DBA/2J mice (AHR^d); experiment: In vivo hepatic microsomal EROD activity, DBA/2J; parameters: species or system mouse; conditions: oral 120 mg/kg, 48 hours
# Method: (§1) We utilized the wild type rat hepatoma cell line, 5L, which harbors the high affinity AHR isoform, and our newly created AHR^d-15 cell line. […] Groups of control mice were given corn oil alone or BNF at the concentration of 120 mg/kg.
# (§2) Figure 3 In Vitro dose response curves. A. Rat hepatoma cell lines bearing the murine AHR^d (AHR^d-15) or the rat AHR^b (5L) were incubated with increasing doses of TCDD in 96-well plates. After 40 hours, EROD activity was performed from whole cell lysate. (n = 3). […] (n = 3). C. Same assay as in A, with increasing doses of BNF. (n = 2). […] Following 48 hours, hepatic microsomal proteins were isolated and used for the assessment of EROD activity. Animals were treated in groups of 4. Error bars: S.D.
# Hepatic microsomes were prepared by homogenizing 0.5 g of liver tissue in 5 mL of MENG buffer (25 mM buffer sodium morpholinopropane sulfonate buffer (pH 7.5) containing 0.025% (w/v) NaN3, 1 mM EGTA and 10% (v/v) glycerol). The homogenate was subjected to centrifugation at 10,000×g for 20 minutes, followed by centrifugation of the supernatant for 1 hour at 100,000×g and 4°C. The pellet was dissolved in 15 mM Tris-HCl buffer containing 250 mM sucrose (pH 8.0) and aliquots were stored at −80°C. Protein concentration was determined using the Bicinchoninic Acid Protein Assay Reagent (Pierce Biotechnology, Rockford, IL). […]
# [3] = biological target: T1, rat AHR^b (5L) (Rattus norvegicus, UniProt P41738); experiment: EROD activity in rat hepatoma 5L cells; assay type: cell-based; conditions: 5L cell line, 40 hours
# T1 construct: endogenous in cells; host or cells: rat hepatoma 5L cells
# Method: as §1, §2
# (§3) High-throughput analysis of EROD activity was assayed by adapting a protocol that was described elsewhere, [63]. Briefly, cells were seeded into 96-well plates at ∼ 60% density and treated with the test compounds for 36 hours. The cells were washed with PBS and lysed with 30 µL water and a cycle of freeze-thaw. To each well, 150 µL of 50 mM Hepes buffer containing 26.7 µM dicumarol and 13.3 µM ethoxyresorufin were added. The samples were incubated at 30°C for 20 minutes, and 50 µL of 0.5 mM β-NADPH were added to initiate the reaction. Fluorescence of the resorufin product was detected using the 544 nm excitation and 590 nm emission wavelength filter set.
# [4] = biological target: T2, murine AHR^d (Mus musculus, UniProt P30561, A375V); experiment: EROD activity in AHR^d-15 cells (rat hepatoma BP8 stably transfected with AHR^d)
# T2 sequence (P30561 10-848 A375V): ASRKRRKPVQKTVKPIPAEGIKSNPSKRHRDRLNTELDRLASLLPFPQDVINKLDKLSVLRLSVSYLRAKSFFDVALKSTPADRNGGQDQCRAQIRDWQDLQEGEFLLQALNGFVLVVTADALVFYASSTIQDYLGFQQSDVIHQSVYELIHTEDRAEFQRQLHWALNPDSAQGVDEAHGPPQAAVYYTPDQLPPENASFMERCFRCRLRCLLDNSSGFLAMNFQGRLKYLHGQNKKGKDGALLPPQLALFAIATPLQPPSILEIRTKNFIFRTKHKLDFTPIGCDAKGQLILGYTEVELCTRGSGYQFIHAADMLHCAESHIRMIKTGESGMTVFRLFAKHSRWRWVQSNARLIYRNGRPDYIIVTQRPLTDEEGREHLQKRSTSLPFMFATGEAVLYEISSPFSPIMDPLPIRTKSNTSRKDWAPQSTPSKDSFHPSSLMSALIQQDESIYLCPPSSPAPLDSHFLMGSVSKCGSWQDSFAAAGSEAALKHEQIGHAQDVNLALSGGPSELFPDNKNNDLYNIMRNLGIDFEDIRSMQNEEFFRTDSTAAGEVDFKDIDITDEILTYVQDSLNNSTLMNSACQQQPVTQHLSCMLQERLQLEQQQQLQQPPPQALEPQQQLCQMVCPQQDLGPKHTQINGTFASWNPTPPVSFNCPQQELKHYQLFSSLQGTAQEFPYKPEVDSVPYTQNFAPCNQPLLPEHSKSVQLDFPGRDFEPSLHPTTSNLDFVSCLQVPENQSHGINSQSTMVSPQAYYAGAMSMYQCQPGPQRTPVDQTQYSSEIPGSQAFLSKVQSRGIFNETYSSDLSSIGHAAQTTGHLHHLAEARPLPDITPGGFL
# Text: The 100 “hit compounds” from the primary screen were subsequently screened for their capacity to activate the low-affinity murine AHR^d receptor isoform using the activity of the endogenous Cyp1a1 gene as a readout. To this end, we established a hepatoma cell line that expresses the AHR^d receptor isoform derived from the DBA/2J mouse. An AHR^d-expressing cell line was generated by stably transfecting the AHR^d cDNA into the rat hepatoma AHR-deficient cell line, BP8 [15]. After stable selection with G418, a subclone (AHR^d-15) was analyzed for receptor expression and function. […] To confirm that the AHR^d-15 clone expressed a functional low affinity AHR^d isoform, we examined the receptor-mediated response to the prototype agonists, TCDD and β-naphthoflavone (BNF).
# To test the ability of the 100 AHR inducers to activate the AHR^d-15 cells, they were treated with each of the compounds at the dose of 1 µM, for 36 hours in 96-well plates.
# as §2
# The open reading frame of the AHR^d gene (PL2047) was amplified by PCR using oligos OL5127 (5′-[…]-3′) and OL5128 (5′-[…]-3′). The product was ligated into the pTARGET™ mammalian expression vector (Promega, Madison, WI). The resulting plasmid was transfected into the AHR-deficient cell line, BP8 [15], using Effectene transfection reagent (Qiagen Inc., Valencia, CA). Stable integrants were selected with 6 mg/ml of G418 for 2 weeks, beginning at 48-hours post-transfection. Clones derived from single cells were screened for their response to nanomolar doses of dioxin or micromolar doses of BNF, as measured by ethoxyresorufin O-deethylase (EROD) activity. […] The validated cell line used in these studies was designated line AHR^d-15.
# as §3
# [5] = test system: AHR (101L-hepatoma cells); experiment: Antagonism of DRE-luciferase activation by CH223191; assay type: cell-based, human
# T1 sequence (P41738 10-853): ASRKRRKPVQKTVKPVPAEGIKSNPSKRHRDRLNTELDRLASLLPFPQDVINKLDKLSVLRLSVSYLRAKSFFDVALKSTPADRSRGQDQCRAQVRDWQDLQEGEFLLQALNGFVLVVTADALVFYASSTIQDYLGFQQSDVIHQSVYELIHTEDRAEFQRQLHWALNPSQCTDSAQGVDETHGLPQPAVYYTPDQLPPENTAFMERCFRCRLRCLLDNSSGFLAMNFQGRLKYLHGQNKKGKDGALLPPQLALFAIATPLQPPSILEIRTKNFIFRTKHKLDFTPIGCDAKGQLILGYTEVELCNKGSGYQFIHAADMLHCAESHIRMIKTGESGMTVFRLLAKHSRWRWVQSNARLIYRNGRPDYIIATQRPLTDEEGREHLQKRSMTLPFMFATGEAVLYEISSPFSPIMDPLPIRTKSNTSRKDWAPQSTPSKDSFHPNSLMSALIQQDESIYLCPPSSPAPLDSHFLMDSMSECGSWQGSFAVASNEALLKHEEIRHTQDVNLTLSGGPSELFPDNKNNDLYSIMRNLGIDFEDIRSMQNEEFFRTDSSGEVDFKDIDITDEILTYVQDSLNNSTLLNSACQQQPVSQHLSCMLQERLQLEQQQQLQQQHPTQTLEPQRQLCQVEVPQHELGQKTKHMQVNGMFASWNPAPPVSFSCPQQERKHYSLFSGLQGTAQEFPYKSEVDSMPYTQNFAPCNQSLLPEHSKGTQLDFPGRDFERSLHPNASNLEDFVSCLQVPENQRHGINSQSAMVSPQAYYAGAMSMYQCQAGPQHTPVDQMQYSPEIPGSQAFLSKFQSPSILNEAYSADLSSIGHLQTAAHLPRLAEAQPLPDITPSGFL
# AHR^b isoform (C57BL/6J hepatic cytosol), sequence (P30561 10-805): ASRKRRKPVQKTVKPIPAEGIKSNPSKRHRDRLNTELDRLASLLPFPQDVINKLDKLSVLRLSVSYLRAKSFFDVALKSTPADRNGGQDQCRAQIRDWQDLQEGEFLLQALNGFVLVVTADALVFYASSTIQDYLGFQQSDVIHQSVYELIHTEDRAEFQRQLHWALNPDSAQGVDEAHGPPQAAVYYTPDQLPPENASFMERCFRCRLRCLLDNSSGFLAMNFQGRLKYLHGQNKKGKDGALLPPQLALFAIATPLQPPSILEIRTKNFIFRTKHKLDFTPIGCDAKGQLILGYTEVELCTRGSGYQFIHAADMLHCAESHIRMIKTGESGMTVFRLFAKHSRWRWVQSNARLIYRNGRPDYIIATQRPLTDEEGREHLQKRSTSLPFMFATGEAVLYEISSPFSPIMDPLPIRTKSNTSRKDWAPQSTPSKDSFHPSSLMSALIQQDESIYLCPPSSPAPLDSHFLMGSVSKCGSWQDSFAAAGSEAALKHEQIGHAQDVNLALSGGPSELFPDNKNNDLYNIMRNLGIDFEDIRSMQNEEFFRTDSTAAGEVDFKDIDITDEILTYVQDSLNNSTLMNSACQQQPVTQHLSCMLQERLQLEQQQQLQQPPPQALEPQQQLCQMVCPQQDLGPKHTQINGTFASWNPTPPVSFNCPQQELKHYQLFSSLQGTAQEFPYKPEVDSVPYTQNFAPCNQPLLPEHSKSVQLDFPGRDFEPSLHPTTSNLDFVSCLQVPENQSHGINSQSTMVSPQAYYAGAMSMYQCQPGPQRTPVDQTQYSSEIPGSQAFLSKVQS
compound,measurement,setting,value
"c1ccc2cc3c(ccc4ccccc43)cc2c1 [1,2-Benzanthracene]",IC50,[1],13.7 nM
"O=c1cc(-c2ccccc2)oc2ccc3ccccc3c12 [BNF, β-naphthoflavone]",hepatic EROD activity,[2],dramatically decreased in vivo activity
same,EROD response,[3],strong response
same,EROD response,"[4]; AHR^d-15 cell line, 40 hours",no response
same,AHR-mediated response (EROD activity),"[4]; AHR^d-15 cells, doses as high as 10 µM, 36 hours",inactive
Cc1ccccc1N=Nc1ccc(NC(=O)c2ccnn2C)c(C)c1 [CH223191],inhibition of SU5416-induced DRE activation,"[5]; antagonist 10 µM, titration of SU5416, 4 hours",only a small amount of inhibition
same,inhibition of TCDD-induced DRE activation,"[5]; titration of antagonist with 1 nM TCDD, 4 hours",inhibited
same,inhibition of SU5416-induced DRE activation,"[5]; titration of antagonist with 100 nM SU5416, 4 hours",minimal inhibition
